{
  "source": "paper PMC11933534",
  "about": "“Favipiravir induces HuNoV viral mutagenesis and infectivity loss with clinical improvement in immunocompromised patients” (Clinical Immunology (Orlando, Fla.), 2024)",
  "key": {"[1]": {"test": "Favipiravir plasma trough level monitoring in patients (UPLC-MS/MS)", "type": "in vivo, human", "procedure": "Plasma was isolated from patient blood samples collected in EDTA. Frozen plasma samples were shipped to Laboratoire de Pharmacocinétique-Toxicologie, […] La Timone, Aix-Marseille Université, Marseille, France for favipiravir concentration analysis. The quantification of favipiravir in thawed plasma samples was performed by ultra-performance liquid chromatography coupled with tandem mass spectrometry (UPLC-MS/MS) method (UPLC-TQD, Waters, USA) with a lower limit of quantification of 0.5 μg/mL [34]. Validation of the assay was performed in accordance with the 2012 EMA guidelines and the ISO15189 guidelines. Model parameter estimation, model simulation properties (visual predictive check) and dose simulations were assessed using […]2 (2.0.6) and rxode2 (2.0.7) in R (4.2.0), as described elsewhere."}, "HuNoV [2]": {"tested_on": "HuNoV", "test": "Clinical response of immunocompromised patients with chronic HuNoV infection", "type": "in vivo, human", "procedure": "The Drugs and Therapeutics Committees at Great Ormond Street Hospital for Children, Great North Children's Hospital and Royal Free London NHS Trust approved treatment with favipiravir +/− nitazoxanide in four immunocompromised patients with life-threatening/severe chronic HuNoV infections. After obtaining informed consent, microbiological and pharmacological monitoring was performed. Informed consent was also obtained for microbiological monitoring in 2 untreated patients with HuNoV infections. Residual diagnostic viral samples were released for whole-genome sequencing through the UCL/UCLH Pathogen Biobank National Research Ethics Service Committee London Fulham (reference: [12]/LO/1089). For P1 specifically, residual stool samples were released for in vivo infectivity evaluation in the zebrafish model with research ethics approval from London Bloomsbury Research Ethics Committee (reference: 07/Q0508/43). This allows the use of pseudonymised residual diagnostic samples for research. An additional stool sample positive for HuNoV from the existing collection of samples of the University Hospital of Leuven (Belgium) was used (reference: G-2021–4376). Informed consent was obtained from the patient. […]"}, "HuNoV [3]": {"tested_on": "HuNoV", "test": "Stool HuNoV viral load (RT-qPCR Ct) in treated patients", "type": "in vivo, human"}, "[4]": {"test": "Adverse events during off-label treatment of patients", "type": "in vivo, human"}, "HuNoV GII.4 Sydney[P16]": {"tested_on": "HuNoV GII.4 Sydney[P16]", "test": "Antiviral treatment of HuNoV-infected zebrafish larvae (viral RNA by RT-qPCR)", "type": "in vivo", "conditions": "for Reduction in viral load with post-treatment sample: favipiravir 25 ng, inoculum P1 SS F carrying RdRp A44S change", "procedure": "First, compounds were dissolved in 100% DMSO (spectroscopy grade). To determine the correct dose for pericardial injections in zebrafish larvae of all compounds (i.e. favipiravir, tizoxanide and their 1:1 combination), a weight-dependent conversion was applied. For this purpose, the optimized and increased clinical dose of 400 mg favipiravir TDS and 200 mg tizoxanide BD was used. To ensure the weight-converted dose was not toxic for zebrafish larvae of 3 days post fertilization, a toxicity analysis was performed. […] The following parameters were investigated: touch response, morphology, posture, oedema, signs of necrosis, swim bladder and heartbeat.\nZebrafish larvae were anesthetized and positioned as described previously, in short: zebrafish larvae of 3 days post fertilization were anesthetized and transferred to an agarose mold to position them on their dorsal side with the yolk facing upward. In every experiment, the injection needle was calibrated to ensure the precision of the injection volume. Microinjection was performed using an M3301R Manual Micromanipulator (WPI, Friedberg, Germany) and a FemtoJet 4i pressure microinjector (Eppendorf, Hamburg, Germany). Compound-treated zebrafish larvae received a 1 nL (1.5 nL in case of the combination treatment) injection of compound in the pericardial cavity, while negative control zebrafish were injected with an equal volume of DMSO. Subsequently, the zebrafish larvae received an injection of 3 nL virus in the yolk. After both injections, zebrafish larvae were transferred to 6-well plates with Danieau's solution and further maintained in an incubator with a 14/10 h light/dark cycle at 32 °C.\nZebrafish larvae were homogenized (Precellys 24, Bertin Technologies, Montigny-le-Bretonneux, France), the homogenates were cleared by centrifugation (5 min, 9000 g), and RNA was extracted using the Direct-zol RNA kit (Zymo Research, Irvine, CA, USA), according to the manufacturer's protocol. RNA levels were quantified with a one-step RT-qPCR (iTaq Universal Probes One-Step Kit, Bio-Rad, Hercules, CA, USA) as previously described."}, "HuNoV [5]": {"tested_on": "HuNoV", "design": "method as in PMID 30485769", "conditions": "P2 (CVID); favipiravir 1200 mg 12-hourly, three courses; cited from earlier work"}},
  "note": "“And” between values parts separate entries of the source, which are not always exact repeats. Equal entries are not always repeated. Where two headings read alike, the source gives them in different places.",
  "data": [
    {"smiles": "NC(=O)c1nc(F)c[nH]c1=O", "note": "[favipiravir]", "values": [
      {"measurement": "Favipiravir plasma trough level", "setting": "[1]; P1, 200 mg TDS (8-hourly, 51 mg/kg/day), average at month four", "result": 10.0, "unit": "µg/mL"},
      {"measurement": "Favipiravir plasma trough level", "setting": "[1]; P1, 400 mg TDS (8-hourly, 97 mg/kg/day)", "result": "154 µg/mL and 154.0 µg/mL"},
      {"measurement": "Favipiravir plasma trough level", "setting": "[1]; P4, 400 mg TDS (8-hourly, 67 mg/kg/day)", "result": "159 µg/mL and 159.0 µg/mL"},
      {"measurement": "Clinical response", "setting": "HuNoV [2]; P3 (CID), favipiravir monotherapy", "result": "Weight gain, reduced stool output, improved enteral feeding"},
      {"measurement": "Patient weight after treatment", "setting": "HuNoV [2]; P3, second course up to 12-hourly 800 mg, four months, from 28.9 kg", "result": 33.3, "unit": "kg"},
      {"measurement": "Stool HuNoV viral load", "setting": "HuNoV [3]; P3, favipiravir 12-hourly 1200 mg, before treatment max Ct 21.2", "result": 30.9, "unit": "Ct"},
      {"measurement": "Stool HuNoV viral load", "setting": "HuNoV [3]; P4, favipiravir 400 mg 8-hourly + nitazoxanide 200 mg 12-hourly, max Ct, before treatment max Ct 17.9", "result": 27.8, "unit": "Ct"},
      {"measurement": "Adverse event", "setting": "[4]; P1, favipiravir 200 mg 8-hourly + nitazoxanide 200 mg 12-hourly, suspected to be drug-induced, several medications discontinued", "result": "conjugated hyperbilirubinaemia"},
      {"measurement": "Recurrence of conjugated hyperbilirubinaemia", "setting": "[4]; P1, restarted favipiravir 400 mg 8-hourly + nitazoxanide 200 mg 12-hourly", "result": "did not recur"},
      {"measurement": "Adverse event", "setting": "[4]; P3, favipiravir 12-hourly 400 mg increased to 800 mg, transaminitis did not recur", "result": "nail discolouration and frequent headaches"},
      {"measurement": "Adverse event", "setting": "[4]; P3, favipiravir 12-hourly 1200 mg, discontinued after one month", "result": "progressing transaminitis"},
      {"measurement": "Adverse event", "setting": "[4]; P4, after 2 months of favipiravir 400 mg 8-hourly + nitazoxanide, nail discolouration reversed after discontinuation", "result": "nail discolouration and intermittent jaundice"},
      {"measurement": "Reduction in viral RNA copies/zebrafish", "setting": "HuNoV GII.4 Sydney[P16]; favipiravir 25 ng single pericardial injection, inoculum P1 pre-treatment SS A, day 3 pi (peak), p = 0.0263", "result": 1.6, "unit": "log10"},
      {"measurement": "Reduction in viral load with post-treatment sample", "setting": "HuNoV GII.4 Sydney[P16]", "result": "no reduction in viral load"},
      {"measurement": "Reduction in viral load with post-treatment sample", "setting": "HuNoV GII.4 Sydney[P16]; listed as Favipiravir", "result": "cannot reduce"},
      {"measurement": "Reduction of HuNoV replication", "setting": "HuNoV GII.4 Sydney[P16]; monotherapy favipiravir 25 ng or tizoxanide 4 ng, in-house GII.4 Sydney[P16] stool sample, peak 2 dpi, p = 0.0006 and 0.001", "result": "> 1", "unit": "log10"},
      {"measurement": "Clinical response", "setting": "HuNoV [5]", "result": "Weight gain, reduced stool output, decreased adjunctive loperamide"}
    ]}
  ]
}
